ChEMBL document CHEMBL1201862, “PubChem BioAssay data set” (2004)
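All cell lines were grown in 96-well plates and treated with compound for 48 hours. Here, GI50 denotes the concentration required for 50% inhibition of growth.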 The source made the active and inactive calls. Rule as the data show it: active = GI50 up to about 1.1 µM and inactive = higher.

Tests used:
Experiment in all cases: NCI anticancer screen, dose series, 48 h
CCRF-CEM = system: CCRF-CEM
OVCAR-3 = system: OVCAR-3
SR = system: SR
SF-295 = system: SF-295
OVCAR-8 = system: OVCAR-8
Hs-578T = system: Hs-578T
U-251 = system: U-251
MDA-N = system: MDA-N
K562 = system: K562
COLO 205 = system: COLO 205
HCT-15 = system: HCT-15
SK-OV-3 = system: SK-OV-3
LOX IMVI = system: LOX IMVI
NCI-H460 = system: NCI-H460
SF-539 = system: SF-539
DU-145 = system: DU-145
OVCAR-4 = system: OVCAR-4
UACC-257 = system: UACC-257
UACC-62 = system: UACC-62
EKVX = system: EKVX

SMILES	GI50 (CCRF-CEM)	GI50 (OVCAR-3)	GI50 (SR)	GI50 (SF-295)	GI50 (OVCAR-8)	GI50 (Hs-578T)	GI50 (U-251)	GI50 (MDA-N)	GI50 (K562)	GI50 (COLO 205)	GI50 (HCT-15)	GI50 (SK-OV-3)	GI50 (LOX IMVI)	GI50 (NCI-H460)	GI50 (SF-539)	GI50 (DU-145)	GI50 (OVCAR-4)	GI50 (UACC-257)	GI50 (UACC-62)	GI50 (EKVX)
COc1ccc(/C(C)=N/OC(=O)c2c(-c3ccccc3Cl)noc2C)cc1CN1CCOCC1	66.7 µM (inactive)	21.7 µM (inactive)	25 µM (inactive)	11.5 µM (inactive)	29.3 µM (inactive)	28.9 µM (inactive)	25.4 µM (inactive)	18.8 µM (inactive)	28.2 µM (inactive)	16.2 µM (inactive)	26.5 µM	29.4 µM (inactive)	14.9 µM (inactive)	29 µM (inactive)	24.8 µM (inactive)	38.3 µM (inactive)	29.4 µM (inactive)	17.9 µM (inactive)	15 µM (inactive)	
O=C(/C=C/c1ccc2c(c1)OCO2)CC(=O)C(=O)c1c[nH]c2ccccc12	26.7 µM (inactive)	32 µM (inactive)	31.6 µM (inactive)	61.8 µM (inactive)	37.1 µM (inactive)	29 µM (inactive)	30.8 µM (inactive)	27.9 µM (inactive)	24.2 µM (inactive)	35.3 µM (inactive)	36.8 µM	35.2 µM (inactive)	40.2 µM (inactive)	33.7 µM (inactive)	32.4 µM (inactive)	42.9 µM (inactive)		51.8 µM (inactive)	44.2 µM (inactive)	38.5 µM (inactive)
C[C@H]1CC[C@@]2(NC1)O[C@H]1C[C@H]3[C@@H]4CC[C@H]5C[C@@H](O)CC[C@]5(C)[C@H]4CC[C@]3(C)[C@H]1[C@@H]2C	> 100 µM (inactive)	54.2 µM (inactive)	22.9 µM (inactive)	55.7 µM (inactive)	38.8 µM (inactive)	47 µM (inactive)		> 100 µM (inactive)	> 100 µM (inactive)	> 100 µM (inactive)	42.7 µM	> 100 µM (inactive)	45.3 µM (inactive)	33.4 µM (inactive)	> 100 µM (inactive)	> 100 µM (inactive)	35.6 µM (inactive)	> 100 µM (inactive)	> 100 µM (inactive)	> 100 µM (inactive)
Nc1nc(N)nc(-c2cnc3ccccc3c2)n1	13.4 µM (inactive)	> 100 µM (inactive)	37 µM (inactive)	> 100 µM (inactive)	> 100 µM (inactive)	> 100 µM (inactive)	> 100 µM (inactive)	> 100 µM (inactive)	> 100 µM (inactive)	> 100 µM (inactive)	> 100 µM	87.9 µM (inactive)	> 100 µM (inactive)	> 100 µM (inactive)	> 100 µM (inactive)	> 100 µM (inactive)		> 100 µM (inactive)	72.1 µM (inactive)	38.4 µM (inactive)
Cc1cccc(/C=C2\CCCCCC2=O)c1	28.8 µM (inactive)	> 100 µM (inactive)	> 100 µM (inactive)	> 100 µM (inactive)		> 100 µM (inactive)	> 100 µM (inactive)	> 100 µM (inactive)	> 100 µM (inactive)	> 100 µM (inactive)	> 100 µM	> 100 µM (inactive)	> 100 µM (inactive)	99.8 µM (inactive)		> 100 µM (inactive)	> 100 µM (inactive)	> 100 µM (inactive)	> 100 µM (inactive)	> 100 µM (inactive)
Fc1cc2nc3n(c2cc1F)C(c1c(F)cccc1F)SC3 (stereo unspecified)		34.4 µM (inactive)	30.1 µM (inactive)	37.2 µM (inactive)	42 µM (inactive)	50.1 µM (inactive)	57.3 µM (inactive)	35.6 µM (inactive)		31.3 µM (inactive)	44 µM	42.7 µM (inactive)	38.8 µM (inactive)	36.8 µM (inactive)	39.4 µM (inactive)	87.5 µM (inactive)	42.1 µM (inactive)	46.6 µM (inactive)	38.8 µM (inactive)	
